Data on 16 compounds can be found in article PMC2607018, “Iodine Atoms: A New Molecular Feature for the Design of Potent Transthyretin Fibrillogenesis Inhibitors” (PLoS ONE, 2009).

In one data set the target is TTRwt (Homo sapiens, UniProt P02766). Description: Tetramer dissociation in 6M urea monitored by far-UV circular dichroism. The data set is classed as biochemical. The following applies: TTRwt 3.6 µM, inhibitor 7.2 µM, 25 °C. An excerpt:
(§1) The stabilizing effect of iodine atoms on the tetrameric form of both TTRwt and TTRY78F has been further evaluted on urea induced dissociation experiments by comparing the performance of iododiflunisal versus diflunisal. Thus, after allowing maximum stabilization of the tetrameric forms of both TTR wild type and Y78F mutant proteins by formation of TTR/inhibitor complexes of (1:2) stoichiometry, measures of circular dichroism in the far-UV of changes in the secondary structure of TTR were recorded as a function of time in 6M urea solutions. It has been assumed that the rate of tetramer dissociation is irreversibly associated to fast monomer unfolding when employing urea concentrations exceeding those that may enable monomer refolding.
(§2) It is known that the dissociation of the tetrameric form of TTRwt takes an average of 42 h and the resulting monomers quickly unfold 500.000 times faster. Therefore the rate of dissociation can be estimated by lining it to unfolding which is irreversible in 6M urea. Thus, owing that the tetramer dissociation is the rate limiting step for fibrilogenesis and assuming the kinetic stabilizing mechanism of inhibition, good inhibitors should slow tetramer dissociation.
(§3) Although slow tetramer dissociation is not detectable by far-UV CD spectroscopy, this technique is very much suitable at monitoring the much faster unfolding step.The CD spectra of TTR corresponds to a typical β-sheet reach protein with a Cotton effect centered at 210 nm and a shoulder at 217 nm. This band gradually looses intensity as protein denaturation advances, therefore meaningful changes in the β-sheet content of the protein are normally recorded in the region of 210–250 nm. Below this region (190–210 nm) other interesting structural changes are masked by the high concentrations of urea required for denaturation. Results are here presented in unfolded fraction units which are calculated from each spectra assuming than at time zero the elipticity recorded corresponds to the fully folded protein while at 200 h this parameter agrees with a totally unfolded state.
(§4) Both proteins were incubated in buffered solutions of 6M urea in the presence and absence of 1:2 ratios of protein to inhibitor and far-UV CD spectra ([…]) were intermitently recorded for a period of 200 hours. […]
(§5) Protein stock solutions of wtTTR and TTRY78F of 1 mg/ml of protein in 50 mM of sodium phosphate buffer, 1mM EDTA, pH 7.0 were also prepared from mother solutions of both proteins containing 4 mg/mL (72.7 µM) of wtTTR and 3 mg/mL (55.5 µM) of TTRY78F that were determined by spectrophotometrical methods. […] The samples were incubated over a period of 200 hours at 25 °C and far-UV CD spectra (210-250 nm) were periodically recorded in a JASCO 600 instrument. […]
Background: Circular dichroism is the unequal absorption of left and right circularly polarised light.

For data set [1], the target named is T1, TTRY78F (Homo sapiens, UniProt P02766, Y98F). The description is as above. The data set is classed as biochemical. The following applies: TTRY78F 3.6 µM, inhibitor 7.2 µM, 25 °C.
Description: as §1, §2, §3, §4, §5

The target of data set [2] is T1, TTRY78F. Set-up: method as in PMID 15080795. The following applies: 1:2 proportion of TTRY78F/inhibitor; cited from earlier work.
The target of data set [3] is T2, thyroid hormone receptor beta (Homo sapiens, UniProt P10828).
T2 sequence (P10828 1-461): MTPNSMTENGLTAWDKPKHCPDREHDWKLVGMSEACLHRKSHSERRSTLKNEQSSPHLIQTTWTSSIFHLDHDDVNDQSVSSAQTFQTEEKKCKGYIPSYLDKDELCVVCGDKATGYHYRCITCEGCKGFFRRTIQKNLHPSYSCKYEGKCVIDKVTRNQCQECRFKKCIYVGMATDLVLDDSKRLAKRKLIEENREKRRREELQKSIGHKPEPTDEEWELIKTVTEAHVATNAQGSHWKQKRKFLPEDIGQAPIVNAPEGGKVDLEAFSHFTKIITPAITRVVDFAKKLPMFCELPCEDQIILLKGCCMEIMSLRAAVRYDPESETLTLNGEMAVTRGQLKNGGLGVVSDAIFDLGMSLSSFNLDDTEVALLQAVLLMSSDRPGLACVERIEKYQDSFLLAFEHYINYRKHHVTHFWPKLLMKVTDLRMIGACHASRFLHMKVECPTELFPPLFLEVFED
Description: In vitro binding test to thyroid hormone receptors. The following applies: data not shown. As for the experimental part: (§6) To gain further insight on the therapeutic potential of these iodinated TTR fibrillogenesis inhibitors, in vitro binding tests of idodiflunisal to thyroid hormone receptors alfa and beta were carried out (data not shown). […] This has been further confirmed by preclinical animal studies using a TTRV30M transgenic mice strain receiving 2.8 mg of iododiflunisal per day during 3 months. […] However, further preclinical tests are needed to validate these compounds as potential drugs for TTR related amyloidosis.

Data set [4] deals with thyroid hormone receptor alfa. The data set can be described thus: In vitro binding test to thyroid hormone receptors. The following applies: data not shown. As for the experimental part: as §6
Data set [5] concerns TTRV30M transgenic mice strain. The data set can be described thus: Preclinical animal study, 3 months. The data set is classed as in vivo. The following applies: 2.8 mg per day during 3 months. The method, then: as §6
In data set [6] the test system is natural TTR tetramers occurring in blood plasma of control and FAP patients. Set-up: method as in PMID 15080795. The following applies: cited from earlier work.
For another data set, the target named is TTR variant Y78F (Homo sapiens, UniProt P02766, Y98F). The data set can be described thus: Kinetic turbidity assay of acid induced fibril formation. The data set is classed as biochemical. An excerpt: Two different parameters can be derived from this kinetic test. The IC50 value is the inhibitor concentration at which the initial rate of fibril formation is half than that in the absence of inhibitor. In turn, RA (%) can be defined as the percent reduction of fibril formation rate at high inhibitor concentration relative to the rate at zero concentration of tested compound.
An in vitro turbidimetric test in a high troughput mode was used to assess the fibrillogenesis inhibition potency of the compounds of the library. The mutant protein TTRY78F was incubated with various concentrations of test compounds in 96 well microplates. After lowering the pH of the solutions to 4.2, the incubation was extended for 1.5 h while recording the absorbance at 340 nm at 1 min intervals. […] (Figure S1).
The mutant Y78F TTR protein (0.4 mg.mL^-1) was incubated for 30 min (pH 7.6, 37 °C) with 6 concentrations of test compounds ranging from 0 to 40 µM in 96-well microplates.
IC50% value is the inhibitor concentration at which the initial rate of fibril formation is half of that in the absence of inhibitor. RA(%) is the percentage of reduction in fibril formation rate induced by a given concentration of test compound relative to the rate of experiments at zero concentration of test compound.

In data set [7] the target is T3, recombinant wild type TTR (Homo sapiens, UniProt P02766).
T3 construct: made in house; host or cells: E. coli
Description: T4 competition assay (125I-T4, gel filtration). The data set is classed as binding. The following applies: for affinity for TTR relative to T4, in words: from T4 displacement. An excerpt: To evaluate the relative binding affinity of the compounds for TTR an already described procedure was followed.
A general note: In gel filtration, larger molecules generally elute earlier.

[8] abbreviates: inhibitor concentration at which the initial rate of fibril formation is half, Y78F TTR 0.4 mg/mL, pH 4.2, 37 °C, read-out: Kinetic turbidity assay IC50.
[9] abbreviates: fibrillogenesis inhibition assay, effect of iodination, read-out: Inhibitory efficiency, rough screening (Figure 3, measure not given).

Where two headings read alike, the source gives them in different places.

For the compound `O=C(O)c1cc(-c2ccc(F)cc2F)ccc1O` [1a, 2’,4’-difluoro-4-hydroxy-[1,1’]-biphenyl-3-carboxylic acid, reference compound], the “protein denaturation (unfolding) after 200 h” value at TTRwt turned out to be 60%. In addition, the “protein denaturation (tetramer dissociation) after 200 h” value on TTRY78F [1] is given as 80%. Also, the “aggregates seen by TEM” value on TTRY78F [2] was “still allow amyloid precipitates to occur”.

Consider `O=C(O)c1cc(-c2ccc(F)cc2F)cc(I)c1O` [1b, 2’,4’-difluoro-4-hydroxy-5-iodo-[1,1’]-biphenyl-3-carboxylic acid], for which the binding constants entry in data set [3] and in [4] was “almost negligible” each time. Besides, in [5], the metabolic disfunctions entry is “did not show significant metabolic disfunctions”. Also, the “stabilizing effect on TTR tetramers” value in [6] is “more potent stabilizing effect”. At TTRwt, the “protein denaturation (unfolding) after 200 h” value turned out to be 30%. For the same compound, at TTRY78F [1], the “protein denaturation (tetramer dissociation) after 200 h” value turned out to be 30%. At TTRY78F [2], the “aggregates seen by TEM” value is recorded as “completely prevented”.

As for `O=C(O)CCNC(=O)c1cc(-c2ccc(F)cc2F)cc(I)c1O` [22b, N-[2’-,4’-difluoro-4-hydroxy-5-iodo-[1,1’]-biphenyl-3-carbonyl]-β-alanine], at TTR variant Y78F, the “fibrillogenesis inhibitory potency, in words” value is given as “very potent inhibitor”. Further, the “affinity for TTR relative to T4, in words” value in data set [7] was “equal affinity for TTR than T4”. The “T4 Displacement EC50(T4)/EC50(I)” value in data set [7] (wild type TTR 30 nM, 125I-T4, test compounds 0-10 µM, relative to cold T4) was found to be 0.95.

Consider `CC(C)(C)OC(=O)CC(NC(=O)c1cc(-c2ccc(F)cc2F)cc(I)c1O)C(=O)O` [18b, N-[2’,4’-difluoro-4-hydroxy-5-iodo-[1,1’]-biphenyl-3-carbonyl]-L-aspartic β-tert-butyl ester], for which, on TTR variant Y78F (setting [8]), the IC50 is 6 µM.

Take `COC(=O)C(CC(=O)OC(C)(C)C)NC(=O)c1cc(-c2ccc(F)cc2F)cc(I)c1O` [19b, N-[2’,4’-difluoro-4-hydroxy-5-iodo-[1,1’]-biphenyl-3-carbonyl]-L-aspartic α-methyl ester and β-tert-butyl ester]: the IC50 on TTR variant Y78F (setting [8]) worked out at 5.8 µM. In addition, the “affinity for TTR relative to T4, in words” value in data set [7] is reported as “higher affinity values for TTR than T4”.

`COC(=O)[C@H](CO)NC(=O)c1cc(-c2ccc(F)cc2F)ccc1O` [15a, N-[2’,4’-difluoro-4-hydroxy-[1,1’]-biphenyl-3-carbonyl]-L-serine methyl ester]: the IC50 on TTR variant Y78F (setting [8]) is over 50 µM.

As for `CCOC(=O)c1cc(-c2ccc(F)cc2F)cc(I)c1O` [4b], at TTR variant Y78F (setting [8]), the IC50 is 6.9 µM.

As to `C[C@H](NC(=O)c1cc(-c2ccc(F)cc2F)ccc1O)C(=O)O` [9a, N-[2’,4’-difluoro-4-hydroxy-[1,1’]-biphenyl-3-carbonyl]-L-alanine], the IC50 at TTR variant Y78F (setting [8]) is over 50 µM.

In the case of `COC(=O)[C@H](CO)NC(=O)c1cc(-c2ccc(F)cc2F)cc(I)c1O` [15b, N-[2’,4’-difluoro-4-hydroxy-5-iodo-[1,1’]-biphenyl-3-carbonyl]-L-serine methyl ester], the IC50 on TTR variant Y78F (setting [8]) came out at 7.2 µM.

`CC(C)(C)OC(=O)[C@H](CC(N)=O)NC(=O)c1cc(-c2ccc(F)cc2F)cc(I)c1O` [21b, N-[2’,4’-difluoro-4-hydroxy-5-iodo-[1,1’]-biphenyl-3-carbonyl]-L-asparagine tert-butyl ester]: the IC50 on TTR variant Y78F (setting [8]) came to 9.7 µM.

Regarding `CC(NC(=O)c1cc(-c2ccc(F)cc2F)cc(I)c1O)C(=O)O` [9b, N-[2’,4’-difluoro-4-hydroxy-5-iodo-hydroxy-[1,1’]-biphenyl-3-carbonyl]-L-alanine], the IC50 at TTR variant Y78F (setting [8]) worked out at 5.8 µM.

In the case of `CC(C)(C)OC(=O)CC(NC(=O)c1cc(-c2ccc(F)cc2F)ccc1O)C(=O)O` [18a, N-[2’,4’-difluoro-4-hydroxy-[1,1’]-biphenyl-3-carbonyl]-L-aspartic β-tert-butyl ester], on TTR variant Y78F (setting [8]), the IC50 is 38.3 µM.

As for `CC(C(=O)O)c1ccc(-c2ccccc2)c(F)c1` (stereo not shown) [Flurbiprofen, reference compound], the IC50 on TTR variant Y78F (setting [9]) is over 100 µM.

`Nc1c(I)cc(-c2ccc(F)cc2F)cc1C(=O)O` [5b, 2’,4’-difluoro-4-amino-3-iodo-[1,1’]-biphenyl-3-carboxylic acid]: the IC50 on TTR variant Y78F (setting [8]) came to 16.3 µM.

Take `CCOC(=O)[C@H](C)NC(=O)c1cc(-c2ccc(F)cc2F)cc(I)c1O` [11b, N-[2’,4’-difluoro-4-hydroxy-5-iodo-[1,1’]-biphenyl-3-carbonyl]-L-alanine ethyl ester]: the IC50 on TTR variant Y78F (setting [8]) amounted to 5.7 µM. For the same compound, in data set [7], the “affinity for TTR relative to T4, in words” value is on record as “higher affinity values for TTR than T4”.

On to `O=C(O)c1ccc(-c2ccccc2)cc1` [Biphenyl carboxylic, reference compound], for which the IC50 at TTR variant Y78F (setting [9]) is 49 µM.
